Measured values: US20080125496A1, “ANTIMICROBIAL FLAVOR AND ORAL CARE COMPOSITION CONTAINING THE SAME” (TAKASAGO INTERNATIONAL CORPORATION, priority 2001, published 2008)
In brackets after ≈: the same amount, converted by molar mass. Read-outs that look alike come from different tables or passages of the source.

How the values were obtained:
Format in all cases: cell-based
[1] = system: Actinomyces naeslundii JCM 8350; assay: MIC by agar plate dilution method, Aa-1; details: for MIC: Actinomyces naeslundii, read-out: MIC Aa-1 (caries-related bacteria)
Description: (§1) The minimum inhibitory activities of the antimicrobial flavors of the invention on anaerobic oral bacteria were measured by an agar plate dilution method.
(§2) All the test strains were obtained from Riken (The Institute of Physical and Chemical Research). The names and abbreviations of the strains are shown in Table 1 below (The abbreviations are used in the following description).
(§3) Each test microorganism kept frozen (−80° C.) in glycerol at a concentration of 25% was thawed. A 100 μl portion of the suspension was inoculated into 10 ml of a liquid medium. A Gifu university anaerobic medium (GAM) (Nissui Pharmaceutical Co., Ltd) having added thereto Hemin (Tokyo Kasei) and Menadione (Sigma) was used for Su-1 and Fn-1. Schaedler Broth (BBL) having added thereto Hemin and Menadione was used for the other strains. The culture was anaerobically incubated at 37° C. for 72 hours by using BBL Gas Pack Anaerobic System. After the cultivation, the microbial cell suspension of Su-1 was 10-fold diluted to prepare an inoculum. The cultures of Fn-1 and Pg-1 were used as such as an inoculum. The cultures of Pt-1, Aa-1, and Av-1 were subjected to centrifugation, and the separated microbial cells were suspended in 2 ml of sterilized physiological saline to prepare the respective inoculums.
(§4) An agar medium prepared by adding 2% agar (Difco), Hemin, and Menadione to Trypticase Soy Broth (BBL) was used. A test sample (antimicrobial flavor) was dissolved in ethanol to prepare 2-fold serial dilutions. To 10 ml of the agar medium was added 100 μl of each dilution and stirred well. The agar medium was transferred to a petri dish (diameter: 9 cm) and solidified at room temperature. The solidified agar medium was inoculated with 5 μl of the inoculum by means of a multipoint inoculator (Microplanter MIT-P27, supplied by Sakuma Seisakusho), followed by culturing at 37° C. for 72 hours under anaerobic conditions. The growth of the test microorganism was compared with a blank petri dish (the agar medium to which 100 μl of ethanol had been added). The lowest sample concentration that inhibited growth was taken as MIC (ppm).
(§5) Antimicrobial activities (MIC; ppm) of the aromahygiene base (AHB) prepared in (1) and the antimicrobial flavor compositions prepared in (2) (Examples 2-1 to 2-3) and Comparative Examples 2-1 to 2-3 were measured in the same manner as in Example 1 (2).

[2] = system: Porphyromonas gingivalis JCM 8525; assay: MIC by agar plate dilution method, Pg-1; details: for MIC: Porphyromonas gingivalis, read-out: MIC Pg-1 (paradentosis-related bacteria; head Fg-1 in Tables 2 and 3)
Description: as §1, §2, §3, §4, §5

[3] = system: Actinomyces viscosus JCM 8352; assay: MIC by agar plate dilution method, Av-1; details: for MIC: Actinomyces viscosus, read-out: MIC Av-1 (caries-related bacteria)
Description: as §1, §2, §3, §4, §5

[4] = system: Prevotella intermedia JCM 6322; assay: MIC by agar plate dilution method, Pt-1; details: for MIC: Prevotella intermedia, read-out: MIC Pt-1 (paradentosis-related bacteria)
Description: as §1, §2, §3, §4, §5

[5] = system: Streptococcus mutans JCM 5175; assay: MIC by agar plate dilution method, Su-1; details: for MIC: Streptococcus mutans, read-out: MIC Su-1 (caries-related bacteria)
Description: as §1, §2, §3, §4, §5

[6] = system: Fusobacterium nucleatum JCM 6328; assay: MIC by agar plate dilution method, Fn-1; details: for MIC: Fusobacterium nucleatum, read-out: MIC Fn-1 (paradentosis-related bacteria)
Description: as §1, §2, §3, §4, §5

[7] = agar medium, 37° C., 72 hours, anaerobic conditions
[8] = JCM8350, agar medium, 37° C., 72 hours, anaerobic conditions
[9] = JCM8525, agar medium, 37° C., 72 hours, anaerobic conditions
[10] = JCM8352, agar medium, 37° C., 72 hours, anaerobic conditions
[11] = JCM6322, agar medium, 37° C., 72 hours, anaerobic conditions
[12] = JCM5175, agar medium, 37° C., 72 hours, anaerobic conditions
[13] = JCM6328, agar medium, 37° C., 72 hours, anaerobic conditions

COc1ccccc1C=CC=O [o-Methoxycinnamic aldehyde]
MIC Aa-1 (caries-related bacteria) [1, 7]: 250 ppm | MIC Pg-1 (paradentosis-related bacteria; head Fg-1 in Tables 2 and 3) [2, 7]: 7.8 ppm | MIC Av-1 (caries-related bacteria) [3, 7]: 250 ppm | MIC Pt-1 (paradentosis-related bacteria) [4, 7]: 62.5 ppm | MIC Su-1 (caries-related bacteria) [5, 7]: 250 ppm | MIC Fn-1 (paradentosis-related bacteria) [6, 7]: 250 ppm

O=C1CCCC=CCCCCCCCCCC1 [5-cyclohexadecen-1-one]
MIC [1, 8]: > 1000 µg/mL | MIC [2, 9]: 15.6 µg/mL (≈ 66 µM) | MIC [3, 10]: > 1000 µg/mL | MIC [4, 11]: 31.3 µg/mL (≈ 132 µM) | MIC [5, 12]: > 1000 µg/mL | MIC [6, 13]: > 1000 µg/mL

C=CCCCCCCCCCO [10-undecen-1-ol]
MIC [1, 8]: 125 µg/mL (≈ 734 µM) | MIC [2, 9]: 31.3 µg/mL (≈ 184 µM) | MIC [3, 10]: 125 µg/mL (≈ 734 µM) | MIC [4, 11]: 31.3 µg/mL (≈ 184 µM) | MIC [5, 12]: 250 µg/mL (≈ 1470 µM) | MIC [6, 13]: 125 µg/mL (≈ 734 µM)

O=CCc1ccccc1 [Phenylacetaldehyde]
MIC [1, 8]: 500 µg/mL (≈ 4160 µM) | MIC ([2]; JCM8525, 72 h): 15.6 µg/mL (≈ 130 µM) | MIC [3, 10]: 250 µg/mL (≈ 2080 µM) | MIC [4, 11]: 15.6 µg/mL (≈ 130 µM) | MIC [5, 12]: > 1000 µg/mL | MIC [6, 13]: 1000 µg/mL (≈ 8320 µM)

CC1=CCC(CCC(C)CO)C1(C)C (stereo not drawn) [Brahmanol]
MIC Aa-1 (caries-related bacteria) [1, 7]: 125 ppm | MIC Pg-1 (paradentosis-related bacteria; head Fg-1 in Tables 2 and 3) [2, 7]: 31.3 ppm | MIC Av-1 (caries-related bacteria) [3, 7]: 125 ppm | MIC Pt-1 (paradentosis-related bacteria) [4, 7]: 31.3 ppm | MIC Su-1 (caries-related bacteria) [5, 7]: 250 ppm | MIC Fn-1 (paradentosis-related bacteria) [6, 7]: 250 ppm

C=CC(C)(O)CC/C=C(\C)CCC=C(C)C (stereo not drawn) [Neroridol]
MIC Aa-1 (caries-related bacteria) [1, 7]: 125 ppm | MIC Pg-1 (paradentosis-related bacteria; head Fg-1 in Tables 2 and 3) [2, 7]: 31.3 ppm | MIC Av-1 (caries-related bacteria) [3, 7]: 125 ppm | MIC Pt-1 (paradentosis-related bacteria) [4, 7]: 31.3 ppm | MIC Su-1 (caries-related bacteria) [5, 7]: 500 ppm | MIC Fn-1 (paradentosis-related bacteria) [6, 7]: 50 ppm

O=C1CCCCCCCCCCC(=O)OCCO1 [Ethylenedodecanedioate]
MIC Aa-1 (caries-related bacteria) [1, 7]: >1000 ppm | MIC Pg-1 (paradentosis-related bacteria; head Fg-1 in Tables 2 and 3) [2, 7]: 31.3 ppm | MIC Av-1 (caries-related bacteria) [3, 7]: 250 ppm | MIC Pt-1 (paradentosis-related bacteria) [4, 7]: >1000 ppm | MIC Su-1 (caries-related bacteria) [5, 7]: >1000 ppm | MIC Fn-1 (paradentosis-related bacteria) [6, 7]: >1000 ppm

CC1=CCC(CCC(C)C(C)O)C1(C)C (stereo not drawn) [Sandalore]
MIC Aa-1 (caries-related bacteria) [1, 7]: 125 ppm | MIC Pg-1 (paradentosis-related bacteria; head Fg-1 in Tables 2 and 3) [2, 7]: 31.3 ppm | MIC Av-1 (caries-related bacteria) [3, 7]: 125 ppm | MIC Pt-1 (paradentosis-related bacteria) [4, 7]: 31.3 ppm | MIC Su-1 (caries-related bacteria) [5, 7]: 250 ppm | MIC Fn-1 (paradentosis-related bacteria) [6, 7]: 125 ppm

CCCCCCCCCO [1-nonanol]
MIC [1, 8]: 500 µg/mL (≈ 3470 µM) | MIC [2, 9]: 250 µg/mL (≈ 1730 µM) | MIC [3, 10]: 500 µg/mL (≈ 3470 µM) | MIC [4, 11]: 250 µg/mL (≈ 1730 µM) | MIC [5, 12]: 1000 µg/mL (≈ 6930 µM) | MIC [6, 13]: 500 µg/mL (≈ 3470 µM)

O=C1CCCCCCCCCCCCCCO1 [Cyclopentadecanolide]
MIC Aa-1 (caries-related bacteria) [1, 7]: >1000 ppm | MIC Pg-1 (paradentosis-related bacteria; head Fg-1 in Tables 2 and 3) [2, 7]: <62.5 ppm | MIC Av-1 (caries-related bacteria) [3, 7]: >1000 ppm | MIC Pt-1 (paradentosis-related bacteria) [4, 7]: <62.5 ppm | MIC Su-1 (caries-related bacteria) [5, 7]: >1000 ppm | MIC Fn-1 (paradentosis-related bacteria) [6, 7]: >1000 ppm

CC(C=O)Cc1ccc2c(c1)OCO2 (stereo not drawn) [Helional]
MIC Aa-1 (caries-related bacteria) [1, 7]: 250 ppm | MIC Pg-1 (paradentosis-related bacteria; head Fg-1 in Tables 2 and 3) [2, 7]: 125 ppm | MIC Av-1 (caries-related bacteria) [3, 7]: 500 ppm | MIC Pt-1 (paradentosis-related bacteria) [4, 7]: 1000 ppm | MIC Su-1 (caries-related bacteria) [5, 7]: 1000 ppm | MIC Fn-1 (paradentosis-related bacteria) [6, 7]: 1000 ppm

CCCCCCCCCCCC=O [Dodecanal]
MIC [1, 8]: 500 µg/mL (≈ 2710 µM) | MIC [2, 9]: 62.5 µg/mL (≈ 339 µM) | MIC [3, 10]: 500 µg/mL (≈ 2710 µM) | MIC [4, 11]: 62.5 µg/mL (≈ 339 µM) | MIC [5, 12]: 500 µg/mL (≈ 2710 µM) | MIC [6, 13]: 125 µg/mL (≈ 678 µM)

COC(=O)c1c(C)cc(O)c(C)c1O [Methyl atrarate]
MIC Aa-1 (caries-related bacteria) [1, 7]: 62.5 ppm | MIC Pg-1 (paradentosis-related bacteria; head Fg-1 in Tables 2 and 3) [2, 7]: 31.3 ppm | MIC Av-1 (caries-related bacteria) [3, 7]: 62.5 ppm | MIC Pt-1 (paradentosis-related bacteria) [4, 7]: 62.5 ppm | MIC Su-1 (caries-related bacteria) [5, 7]: >1000 ppm | MIC Fn-1 (paradentosis-related bacteria) [6, 7]: 125 ppm

CC(=O)O[C@]1(C)CC[C@@]23C[C@@H]1C(C)(C)[C@@H]2CC[C@H]3C [Cedryl acetate]
MIC ([1]; JCM8350, 72 h): > 1000 µg/mL | MIC ([2]; JCM8525, 72 h): 31.3 µg/mL | MIC ([3]; JCM8352, 72 h): > 1000 µg/mL | MIC ([4]; JCM6322, 72 h): 62.5 µg/mL | MIC ([5]; JCM5175, 72 h): > 1000 µg/mL | MIC ([6]; JCM6328, 72 h): > 1000 µg/mL
